Results: article PMC3811095 (Chemical science (Royal Society of Chemistry : 2010), 2011)
pIC50: −log10 of the molar value.

Columns and labels:
[1] = system: wild-type IIIB strain of HIV-1 in MT-2 human T-cells; assay: Antiviral activity against HIV-1; format: cell-based; conditions: HIV-1 IIIB, MT-2 cells, multiplicity of infection 0.1; activity above background
MT-2 human T-cells = assay: General cytotoxicity in MT-2 cells in the absence of virus

| SMILES | protection of cells from cell death due to viral killing [1] | pIC50 (MT-2 human T-cells; read-out: IC50 (general cytotoxicity), absence of virus, concentration at which 50 % of the cells are killed) | general cytotoxicity (in words) (MT-2 human T-cells; same (low nanomolar) range of concentrations) |
| --- | --- | --- | --- |
| C[C@H]1CCCC[C@H]2C(=O)C=C[C@H](O)[C@@H]2CC(=O)O1 [Sch-642305] | below 50% | 6.12 | – |
| O=C1Nc2ccc(Cl)cc2[C@@](C#CC2CC2)(C(F)(F)F)O1 [Efavirenz, reference compound] | – | – | no general cytotoxicity |
